According to US12384769B2, “Heteroaryl-substituted aminoalkyl azole compounds as pesticides” (Elanco Animal Health GmbH, priority 2019, dated 2025):

Columns and labels:
Assay type in all cases: in vivo
Boophilus microplus = Boophilus microplus injection test (BOOPMI Injection); conditions: Rhipicephalus microplus, 168 h, injection into adult engorged female ticks, egg deposition after 7 days, read-out: activity (efficacy, infertile eggs); for pest or weed control at 0.004 mg: 4 μg/animal; for pest or weed control at 0.02 mg: 20 μg/animal
How it was run: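 Adult engorged female ticks (5 per group) injected into the abdomen with 1 μL compound in DMSO, then held in a climate chamber. Fertile egg deposition scored after 7 days, with unclear eggs kept until hatching (~42 days). Efficacy 100% = all eggs infertile, 0% = all fertile.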

[1] = tested on: Rhipicephalus microplus (strain Parkhurst, resistant against synthetic pyrethroids); test: Rhipicephalus microplus in-vitro contact test, larval cattle tick (BOOPMI Contact); conditions: 5 μg/cm^2 (=500 g/ha), after 48 hours, read-out: activity (efficacy, larvae dead or moribund)
How it was run: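 Efficacy, expressed as percentage of larvae dead or moribund, is judged by negative geotactic behaviour 48 h after larvae (20-50 per tube) enter tubes whose inner walls carry a dried acetone film of compound, 5 μg/cm² at 900 ppm. Incubation: horizontal, 27 °C, 85% relative humidity.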

Ctenocephalides felis [2] = test: Ctenocephalides felis in-vitro contact test, adult cat flea; conditions: 5 μg/cm^2 (=500 g/ha), after 48 hours, read-out: activity (efficacy, fleas dead or moribund)
How it was run: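 Acetone solutions coated onto inner walls of glass tubes; 900 ppm gives 5 μg/cm^2. After drying, 5-10 adult Ctenocephalides felis per tube held 48 h at room temperature. Fleas then placed on 45-50° C. plate for up to 5 min; those unable to climb away scored dead or moribund, efficacy as % dead/moribund.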

Ctenocephalides felis [3] = test: Ctenocephalides felis oral test (CTECFE); conditions: 48 h, 100 ppm in cattle blood, after 2 days
How it was run: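 About 20 adult unfed fleas fed through parafilm on cattle blood held at 37° C and dosed with compound from a DMSO concentrate; flea chamber at room temperature. Percent mortality scored after 2 days.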

Diabrotica balteata = Diabrotica balteata spray test; conditions: 168 h, wheat seeds, after 7 days, read-out: activity (efficacy, seedlings grown); for pest or weed control at 160 µg/disc, 500 g/ha: 500 g/ha (=160 μg/well)
How it was run: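 Efficacy was read 7 days after infesting each unit with 10–20 banded cucumber beetle larvae, as % of seedlings growing like untreated, uninfested controls. Before infestation, wheat seeds germinated 1 day on agar (5 per well) were sprayed with the active ingredient. The active was formulated in acetone/DMF and diluted in water containing emulsifier.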

Myzus persicae [4] = test: Myzus persicae oral test; conditions: 120 h, after 5 days
Experimental: Solvent: 100 parts by weight acetone
Afterwards the plates are sealed with parafilm through which a mixed population of the green peach aphid (Myzus persicae) can suck on the compound preparation.
(§1) After 5 days mortality in % is determined. 100% means all aphids have been killed and 0% means none of the aphids have been killed.

Spodoptera frugiperda = Spodoptera frugiperda spray test; conditions: in Zea mays, 168 h, read-out: activity (mortality)
How it was run: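 Larvae of fall armyworm placed on dried maize leaf sections previously sprayed with emulsified compound (acetone/DMF solvent, water with 1000 ppm emulsifier). Percent of caterpillars killed recorded on day 7, 0–100% scale.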

[5] = tested on: Aedes aegypti strain MONHEIM; test: Aedes aegypti test (AEDSAE surface treatment & contact assay); conditions: 30 minutes exposure, 24 hours after contact, read-out: efficacy (mortality); for mortality at 20 mg/m2: surface concentration 20 mg/m^2, glazed tile
Experimental: Aedes aegypti Test (AEDSAE Surface Treatment & Contact Assay)
(§2) Solvent: Aceton+2000 ppm rapeseed oil methyl ester (RME)
In order to produce a sufficient, active ingredient containing solution it is necessary to solve the test compound in the solvent-mix (acetone at 2 mg/mL/RME 2000 ppm). This solution is pipetted onto a glazed tile and after evaporation of the acetone, adult mosquitoes of the species Aedes aegypti strain MONHEIM are placed onto the dried surface. The exposure time is 30 minutes.
(§3) Mortality in percent (%) is determined 24 hours after contact of the insects to the treated surface. 100% mortality means that all tested insects are dead, whereas 0% means that no insect died.

[6] = tested on: Culex quinquefasciatus strain P00; test: Culex quinquefasciatus test (CULXFA surface treatment & contact assay); conditions: surface concentration 20 mg/m^2, glazed tile, 30 minutes exposure, 24 hours after contact, read-out: efficacy (mortality)
Experimental: Culex quinquefasciatus Test (CULXFA Surface Treatment & Contact Assay)
as §2
In order to produce a sufficient, active ingredient containing solution it is necessary to solve the test compound in the solvent-mix (acetone at 2 mg/mL/RME 2 000 ppm). This solution is pipetted onto a glazed tile and after evaporation of the acetone, adult mosquitoes of the species Culex quinquefasciatus strain P00 are placed onto the dried surface. The exposure time is 30 minutes.
as §3

[7] = tested on: Anopheles funestus strain FUMOZ-R; test: Anopheles funestus test (ANPHFU surface treatment & contact assay); conditions: 30 minutes exposure, 24 hours after contact, read-out: efficacy (mortality); for mortality at 20 mg/m2: surface concentration 20 mg/m^2, glazed tile
Experimental: Anopheles funestus Test (ANPHFU Surface Treatment & Contact Assay)
as §2
In order to produce a sufficient, active ingredient containing solution it is necessary to solve the test compound in the solvent-mix (acetone at 2 mg/mL/RME 2000 ppm). This solution is pipetted onto a glazed tile and after evaporation of the acetone, adult mosquitoes of the species Anopheles funestus strain FUMOZ-R (Hunt et al., Med. Vet. Entomol. 2005 September; 19(3): 271-275) are placed onto the dried surface. The exposure time is 30 minutes.
as §3

Tetranychus urticae = Tetranychus urticae spray test OP-resistant; conditions: foliar, 144 h, French bean leaf disks, after 6 days
Experimental: Tetranychus urticae—Spray Test OP-Resistant
(§4) Solvent: 78.0 parts by weight acetone • 1.5 parts by weight dimethylformamide
(§5) Emulsifier: alkylarylpolyglycol ether
(§6) To produce a suitable preparation of active compound, 1 part by weight of active compound is mixed with the stated amount of solvents and is diluted with water, containing an emulsifier concentration of 1000 ppm, to the desired concentration. Further test concentrations are prepared by dilution with emulsifier containing water.
French bean (Phaseolus vulgaris) leaf disks infected with all instars of the two spotted spidermite (Tetranychus urticae) are sprayed with a preparation of the active ingredient of the desired concentration.
After 6 days mortality in % is determined. 100% means all spider mites have been killed and 0% means none of the spider mites have been killed.

Nezara viridula = Nezara viridula spray test; conditions: 96 h, barley plants, after 4 days
Experimental: Nezara viridula—Spray Test
Solvent: 78.0 parts by weight of acetone • • 1.5 parts by weight of dimethylformamide
as §5
To produce a suitable preparation of active compound, 1 part by weight of active compound is mixed with the stated amount of solvent, and the concentrate is diluted with water, containing an emulsifier concentration of 1000 ppm, to the desired concentration. Further test concentrations are prepared by dilution with emulsifier containing water.
Barley plants (Hordeum vulgare) are sprayed with a test solution containing the desired concentration of the active ingredient and are infested with larvae of the southern green stink bug (Nezara viridula).
After 4 days, mortality in % is determined. 100% means all the stink bugs have been killed; 0% means none of the stink bugs have been killed.

[8] = tested on: Musca domestica strain WHO-N; test: Musca domestica test (MUSCDO surface treatment & contact assay); conditions: 30 minutes exposure, 24 hours after contact, read-out: efficacy (mortality)
Experimental: Musca domestica Test (MUSCDO Surface Treatment & Contact Assay)
as §2
In order to produce a sufficient, active ingredient containing solution it is necessary to solve the test compound in the solvent-mix (acetone at 2 mg/mL/RME 2000 ppm). This solution is pipetted onto a glazed tile and after evaporation of the acetone, adult flies of the species Musca domestica strain WHO—N are placed onto the dried surface. The exposure time is 30 minutes.
as §3

Rhipicephalus sanguineus = Rhipicephalus sanguineus in-vitro contact test, adult brown dog ticks (RHIPSA Contact); conditions: 5 μg/cm^2 (=500 g/ha), after 48 hours, read-out: activity (efficacy, ticks dead or moribund)
How it was run: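 Acetone solution coated onto glass tube walls; 900 ppm gives 5 μg/cm^2. After drying, 5-10 adult ticks per tube kept at room temperature for 48 h, then placed on a 45-50° C heating plate up to 5 min; ticks unable to climb away counted dead or moribund, efficacy as % affected.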

Myzus persicae [9] = test: Myzus persicae spray test; conditions: foliar, 120 h, Chinese cabbage leaf disks, after 5 days
Experimental: Myzus persicae—Spray Test
as §4, §5, §6
Chinese cabbage (Brassica pekinensis) leaf disks infected with all instars of the green peach aphid (Myzus persicae), are sprayed with a preparation of the active ingredient of the desired concentration.
as §1

Meloidogyne incognita = Meloidogyne incognita test; conditions: 20 ppm, after 14 days
Experimental: Meloidogyne incognita—Test
Solvent: 125.0 parts by weight of acetone
To produce a suitable preparation of active compound, 1 part by weight of active compound is mixed with the stated amount of solvent, and the concentrate is diluted with water to the desired concentration.
Vessels are filled with sand, a solution of the active ingredient, a suspension containing eggs and larvae of the southern root-knot nematode (Meloidogyne incognita) and salad seeds. The salad seeds germinate, and the seedlings grow. Galls develop in the roots.
After 14 days the nematicidal activity is determined based on the percentage of gall formation. 100% means no galls were found and 0% means the number of galls found on the roots of the treated plants was equal to that in untreated control plants.

[10] = surface concentration 4 mg/m^2, glazed tile

Compound | pest or weed control at 0.004 mg (Boophilus microplus) [%] | pest or weed control at 0.02 mg (Boophilus microplus) [%] | pest or weed control at 5 µg/cm2 [1] [%] | pest or weed control at 5 µg/cm2, 5 µg/cm2 (Ctenocephalides felis [2]) [%] | pest or weed control at 160 µg/disc, 500 g/ha (Diabrotica balteata) [%] | mortality at 100 g/ha (Spodoptera frugiperda) [%] | mortality at 500 g/ha (Spodoptera frugiperda) [%] | pest or weed control at 100 g/ha (Diabrotica balteata) [%] | further results
C[C@H](Nc1nc2cc(C(F)(F)F)cc(C(F)(F)F)c2o1)c1ncnn1-c1ncccn1 [Example I-005] | 100 | 100 | 100 | 100 | 100 | 100 | 100 | – | mortality at 100 ppm (Ctenocephalides felis [3]): 100%; mortality at 4 ppm (Myzus persicae [4]): 90%; mortality at 20 mg/m2 [5]: 90 to 100%; mortality at 20 mg/m2 [6]: 90 to 100%; mortality at 20 mg/m2 [7]: 90 to 100%
C[C@H](Nc1nc2cc(Cl)c(Cl)cc2o1)c1ncnn1-c1ncccn1 [Example I-016] | – | 100 | 100 | – | 100 | – | 100 | 100 | mortality at 500 g/ha (Tetranychus urticae): 90%
C[C@H](Nc1nc2cc(C(F)(F)F)c(Cl)cc2o1)c1ncnn1-c1ccc(C#N)cn1 [Example I-017] | 100 | 100 | 100 | 100 | 100 | 100 | 100 | 100 | mortality at 4 ppm (Myzus persicae [4]): 90%; mortality at 500 g/ha (Nezara viridula; 500 g/ha): 100%; mortality at 4 mg/m2 [5, 10]: 85 to 100%; mortality at 20 mg/m2 [5]: 90 to 100%; mortality at 4 mg/m2 [7, 10]: 85 to 100%; mortality at 20 mg/m2 [7]: 90 to 100%; mortality at 4 mg/m2 [8, 10]: 90 to 100%; mortality at 20 mg/m2 ([8]; surface concentration 20 mg/m^2, glazed tile): 90 to 100%
C[C@H](Nc1nc2cc(C3CC3)cc(Cl)c2o1)c1ncnn1-c1ncccc1F [Example I-067, 7-Chlor-5-cyclopropyl-N-{(1S)-1-[1-(3-fluorpyridin-2-yl)-1H-1,2,4-triazol-5-yl]ethyl}-1,3-benzoxazol-2-amin] | 100 | 100 | – | – | 80 | – | – | – | mortality at 100 ppm (Ctenocephalides felis [3]): 80%; pest or weed control at 5 µg/cm2, 5 µg/cm2 (Rhipicephalus sanguineus): 80%; mortality at 500 g/ha (Tetranychus urticae): 90%
C[C@H](Nc1nc2cc(OC(F)(F)F)c(Cl)cc2o1)c1ncnn1-c1ncc(Br)cn1 [Example I-085, N-{(1S)-1-[1-(5-Brompyrimidin-2-yl)-1H-1,2,4-triazol-5-yl]ethyl}-6-chlor-5(trifluormethoxy)-1,3-benzoxazol-2-amin] | – | – | 100 | 100 | – | 100 | – | 100 | pest or weed control at 5 µg/cm2, 5 µg/cm2 (Rhipicephalus sanguineus): 100%; mortality at 100 g/ha (Myzus persicae [9]; 100 g/ha): 90%; mortality at 100 g/ha (Nezara viridula; 100 g/ha): 100%; mortality at 100 g/ha (Tetranychus urticae; 100 g/ha): 90%
C[C@H](Nc1nc2cc(Cl)cc(C(F)(F)F)c2o1)c1ncnn1-c1ccc(C#N)cn1 [Example I-088, 6-{5-[(1S)-1-{[5-Chlor-7-(trifluormethyl)-1,3-benzoxazol-2-yl]amino}ethyl]-1H-1,2,4-triazol-1-yl}nicotinonitril] | – | – | 100 | – | 100 | – | 83 | – | activity (nematicidal activity, gall formation) (Meloidogyne incognita): 90%
Cc1nc([C@H](C)Nc2nc3cc(Cl)cc(C(F)(F)F)c3o2)n(-c2ccc(C#N)cn2)n1 [Example I-091, 6-{5-[(1S)-1-{[5-Chlor-7-(trifluormethyl)-1,3-benzoxazol-2-yl]amino}ethyl]-3-methyl-1H-1,2,4-triazol-1-yl)nicotinonitril] | – | 100 | 90 | – | – | – | – | – | activity (nematicidal activity, gall formation) (Meloidogyne incognita): 90%; mortality at 500 g/ha (Myzus persicae [9]; 500 g/ha): 90%
